Structures can show the parent of a compound that is named as a salt.
Columns and labels:
MR1T cell clones [1] = assay: MR1T cell activation assay with drug-treated THP-1 cells; assay type: cell-based, human; details: for stimulation of TC5A87 MR1T clone (IFN-γ): THP-1 cells incubated 18 h with drug (FIG. 7d, f, g); for T cell response in MR1T cell clones: THP-1 cells treated with drug; for reactivity of DGB129 clone to drug-treated THP-1 cells: drug alone, 25 μM EHNA, 10 μM MPA, 20 μM BBG (FIG. 9H)
Description: (§1) MR1T cells (5×10^4/well unless otherwise indicated) were co-cultured with the indicated APCs (10^5 cells per well unless otherwise indicated) for 18 h in 120 μL volume in triplicate. In some experiments, anti-MR1 mAbs (clone 26.5, purified and endotoxin-free mouse IgG2a, (Lepore et al., 2014)) or mouse IgG2a isotype control mAbs (LEAF, Biolegend, Cat #401504) (both at 30 μg/mL) were added and incubated for 30 min at 37° C. prior to the addition of T cells.
(§2) In experiments with mycophenolic acid (10 μM), EHNA (25 μM), S-p-bromobenzylglutathione cyclopentyl diester (BBG, 20 μM) (all from Sigma-Aldrich), THP-1 cells (1×10^6/mL) were treated with the indicated concentrations of drugs in complete medium at 37° C. for 18 h before being washed twice with PBS, counted and used for T-cell activation. In experiments where THP-1 cells (1×10^6/mL) were treated with doxorubicin (75 nM) and paclitaxel (5 μM) (both from Sigma-Aldrich), the cells were incubated at 37° C. for 18 h before being washed twice with PBS, counted, and incubated for 2 h with vehicle or 150 μM dAdo and 150 μM guanosine (Sigma-Aldrich) prior to T-cell addition. In experiments where fixed A375-MR1 cells were used to activate MR1T cells, APCs (4×10^5/mL) were treated with apocynin (APO, 100 μM), L-glutathione reduced (GSH, 4 mM), N-acetyl cysteine (NAC, 4 mM), L-buthionine-sulfoximine (BSO, 400 μM) mercaptosuccinic acid (MSA, 3.3 μM), ML-210 (6 μM) or 1S,3R-RSL3 (RSL3, 1 μM), hydralazine hydrochloride (100 μM) or aminoguanidine hemisulfate salt (5 mM) for 18 h at 37° C. before being washed twice with PBS, fixed with glutaraldehyde, counted and used for MR1T cell stimulation.
(§3) The following human cytokines were assessed by ELISA using specific mAbs: GM-CSF (purified clone BVD2-23B6 and biotinylated clone BVD2-21C11, Biolegend Cat #502202 and 502304, respectively), IFN-γ (purified clone MD-1 and biotinylated clone 4S.B3, Biolegend Cat #507502 and 502504, respectively), IL-13 (purified clone JES10-5A2 and biotinylated clone SB126d, SouthernBiotech Cat #10125-01 and 15930-08, respectively).

MR1T cell clones [2] = assay: Competition assay for stimulation of MR1T cell clones; assay type: cell-based, human; details: APCs with compound 2 h (3 doses), then antigen at optimal concentration, cytokine ELISA
Description: As positive control for competition with antigens, Ac-6-FP was used (100 μM). Supernatants were collected after 24 h for cytokine analysis measured by ELISA.

[3] = target: T1, MR1 surface expression on THP-1 MR1 cells (Homo sapiens, UniProt Q95460); assay: Cell surface MR1 modulation on APCs (flow cytometry, anti-MR1 mAb 26.5); assay type: cell-based; details: THP-1 MR1 cells, 3 h at 37° C., 3 doses each
T1 construct: expressed in transfected cells; host or cells: THP-1 (ATCC TIB-202) stably expressing MR1 (THP1-MR1)
Description: […] […] For each condition, net MFI was calculated subtracting isotype MFI from anti-MR1 MFI and fold change of cells treated with synthetic molecules over cells treated with vehicle was calculated.

MR1T cell clones [4] = assay: MR1T cell activation assay with THP-1 cells incubated with compounds (cytokine ELISA); assay type: cell-based, human
Description: MR1T cells (5×10^4/well unless otherwise indicated) were co-cultured with the indicated APCs (10^5 cells per well unless otherwise indicated) for 18 h in 120 μL volume in triplicate.
When nucleobases, nucleosides or nucleotides (all 250 μM) and synthetic compounds M3ADE, OPdA, M1G or OPdC were used to stimulate T cells, the THP-1 cells (10^5/well) were cultured 2 h with the indicated molecules or medium only, prior to T-cell addition. When a single concentration of synthetic antigens was used, 100 μM OPdA, 100 μM OPdC and 13 μM M1G were used for all clones, while 100 μM M3ADE was used for all clones except DGB129, AC1A4, AC1B76 and AVA46 for which 1 μM was used.

MR1T cell clones [5] = assay: MR1T cell activation assay with treated and fixed A375-MR1 cells; assay type: cell-based, human; details: 18 h treatment before fixation; concentrations (FIG. 10D-L)
Description: as §1, §2, §3

MAIT clone MRC25 = assay: Control stimulation of MAIT clone MRC25; assay type: cell-based, human; details: A375-MR1 cells treated with carbonyl scavengers (FIG. 16E)
Description: In some experiments, MAIT cells were stimulated by APCs pulsed 3 h with 5-OP-RU as previously described or with 30 μM 6,7-dimethyl-8-ribityllumazine (Cayman Chemical Cat #23370).

T1 sequence (Q95460 23-341): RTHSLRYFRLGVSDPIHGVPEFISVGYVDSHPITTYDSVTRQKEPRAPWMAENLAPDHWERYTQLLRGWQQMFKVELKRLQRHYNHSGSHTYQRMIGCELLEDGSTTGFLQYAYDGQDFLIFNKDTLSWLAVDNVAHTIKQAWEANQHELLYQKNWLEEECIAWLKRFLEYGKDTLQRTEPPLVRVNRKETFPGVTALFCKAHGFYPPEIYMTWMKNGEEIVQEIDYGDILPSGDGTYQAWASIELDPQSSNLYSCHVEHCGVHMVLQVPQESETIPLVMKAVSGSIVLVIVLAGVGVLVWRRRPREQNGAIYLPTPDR
T1 sequence (P61769 21-119 partner): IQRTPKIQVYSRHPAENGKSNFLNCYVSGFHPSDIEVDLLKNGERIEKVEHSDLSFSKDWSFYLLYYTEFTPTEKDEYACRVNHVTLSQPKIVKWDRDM

CCCCCC[C@@H]([C@@H](C)O)n1cnc2c(N)ncnc21 (racemic) [EHNA, erythro-9-(2-hydroxy-3-nonyl) adenine]
stimulation of TC5A87 MR1T clone (IFN-γ) (MR1T cell clones [1]): induces the stimulation
T cell response in MR1T cell clones (MR1T cell clones [1]): induced a strong stimulation
reactivity of DGB129 clone to drug-treated THP-1 cells (MR1T cell clones [1]): reacted

NC(CCC(=O)NC(CSCc1ccc(Br)cc1)C(=O)NCC(=O)OC1CCCC1)C(=O)OC1CCCC1 (stereo not drawn) [BBG, S-p-bromobenzylglutathione cyclopentyl diester]
IFN-γ release of both MR1T cell clones to THP-1 cells (MR1T cell clones [1]; BBG in combination with each of MPA and EHNA, clones TC5A87 and DGB129 (FIG. 9G, H)): significantly enhanced
reactivity of DGB129 clone to drug-treated THP-1 cells (MR1T cell clones [1]): reacted

C[C@@H](O)[C@H](NC(=O)Nc1ncnc2c1ncn2[C@@H]1O[C@H](CO)[C@@H](O)[C@H]1O)C(=O)O [Cmpd 5, N6-threonylcarbamoyladenosine]
Competition (MR1T cell clones [2]): YES
MRI upregulation [3]: YES
Reactive T cells isolated (MR1T cell clones [4]): YES

CC(C)=CCNc1ncnc2c1ncn2[C@@H]1O[C@H](CO)C(O)C1O (stereo partly drawn) [Cmpd 6, N6-isopent-2-enyladenosine]
Competition (MR1T cell clones [2]): YES
MRI upregulation [3]: YES
Reactive T cells isolated (MR1T cell clones [4]): YES

C[C@@H](O)[C@H](NC(=O)N(C)c1ncnc2c1ncn2[C@@H]1O[C@H](CO)[C@@H](O)[C@H]1O)C(=O)O [Cmpd 10, N6-methyl-N6-threonylcarbamoyladenosine]
Competition (MR1T cell clones [2]): YES
MRI upregulation [3]: YES
Reactive T cells isolated (MR1T cell clones [4]): YES

CN(C)c1nc2c(ncn2[C@@H]2O[C@H](CO)[C@@H](O)[C@H]2O)c(=O)[nH]1 [Cmpd 19, N2,N2-dimethylguanosine]
Competition (MR1T cell clones [2]): YES
MRI upregulation [3]: YES
Reactive T cells isolated (MR1T cell clones [4]): YES

Cn1c(=O)ccn([C@@H]2O[C@H](CO)[C@@H](O)[C@H]2O)c1=O [Cmpd 30, 3-methyluridine]
Competition (MR1T cell clones [2]): YES
MRI upregulation [3]: YES
Reactive T cells isolated (MR1T cell clones [4]): YES

CO[C@@H]1[C@H](O)[C@@H](CO)O[C@H]1n1ccc(=O)n(C)c1=O [Cmpd 32, 3,2′-O-dimethyluridine]
Competition (MR1T cell clones [2]): YES
MRI upregulation [3]: YES

Nc1nc2c(c(CN[C@H]3C=C[C@H](O)[C@@H]3O)cn2[C@@H]2O[C@H](CO)[C@@H](O)[C@H]2O)c(=O)[nH]1 [Cmpd 33, Queuosine]
Competition (MR1T cell clones [2]): YES
MRI upregulation [3]: YES

COC(=O)N[C@@H](CCc1c(C)nc2n(C)c3c(ncn3[C@@H]3O[C@H](CO)[C@@H](O)[C@H]3O)c(=O)n12)C(=O)OC [Cmpd 34, Wybutosine]
Competition (MR1T cell clones [2]): YES
MRI upregulation [3]: YES

CNc1ncnc2c1ncn2[C@@H]1O[C@H](CO)[C@@H](O)[C@H]1O [Cmpd 42, N6-methyladenosine]
Competition (MR1T cell clones [2]): YES
MRI upregulation [3]: YES

Cc1ncnc2nc[nH]c12 [Cmpd 43, 6-Methylpurine]
Competition (MR1T cell clones [2]): YES
MRI downmodulation [3]: YES

CN(C)c1ncnc2nc[nH]c12 [Cmpd 44, 6-(Dimethylamino)purine]
Competition (MR1T cell clones [2]): YES
MRI upregulation [3]: YES

CC(C)=CCNc1ncnc2[nH]cnc12 [Cmpd 45, N6-(Δ2-Isopent-2-enyl) adenine]
Competition (MR1T cell clones [2]): YES
MRI downmodulation [3]: YES

O=c1c(-c2ccc(O)cc2)coc2cc(O[C@@H]3O[C@H](CO)[C@@H](O)[C@H](O)[C@H]3O)ccc12 [Daidzin]
response of MCA2B9 MR1T clone (IFN-γ) (MR1T cell clones [1]; THP-1 cells incubated 18 h with drug (FIG. 7a, b)): increase the response
T cell response in MR1T cell clones (MR1T cell clones [1]): induced a strong T cell response

O=c1oc2c(O)c(O)cc3c(=O)oc4c(O)c(O)cc1c4c23 [Ellagic acid, ellagic acid]
stimulation of QY1A16 MR1T clone (IFN-γ) (MR1T cell clones [1]; THP-1 cells incubated 18 h with drug (FIG. 7e)): induces the stimulation
T cell response in MR1T cell clones (MR1T cell clones [1]): induced a strong T cell response

N[C@@H](CCC(=O)N[C@@H](CS)C(=O)NCC(=O)O)C(=O)O [GSH, L-glutathione reduced]
MR1T-cell stimulation (IFN-γ) by treated, fixed A375-MR1 cells (MR1T cell clones [5]): significantly less IFN-γ production

Cc1onc(C(=O)N2CCN(C(c3ccc(Cl)cc3)c3ccc(Cl)cc3)CC2)c1[N+](=O)[O-] [ML-210]
MR1T-cell stimulation (IFN-γ) by treated, fixed A375-MR1 cells (MR1T cell clones [5]): significantly increased MR1T-cell stimulatory activity

COc1c(C)c2c(c(O)c1C/C=C(\C)CCC(=O)O)C(=O)OC2 [Mycophenolic acid]
stimulation of TC5A87 MR1T clone (IFN-γ) (MR1T cell clones [1]): induces the stimulation
T cell response in MR1T cell clones (MR1T cell clones [1]): induced a strong stimulation
reactivity of DGB129 clone to drug-treated THP-1 cells (MR1T cell clones [1]): reacted

CC(=O)N[C@@H](CS)C(=O)O [N-acetylcysteine]
MR1T-cell stimulation (IFN-γ) by treated, fixed A375-MR1 cells (MR1T cell clones [5]): significantly less IFN-γ production

CC1(C)CC[C@]2(C(=O)O)CC[C@]3(C)C(=CC[C@@H]4[C@@]5(C)CC[C@H](O)C(C)(C)[C@@H]5CC[C@]43C)[C@@H]2C1 [Oleanoic acid, oleanoic acid]
stimulation of TC5A87 MR1T clone (IFN-γ) (MR1T cell clones [1]): induces the stimulation
T cell response in MR1T cell clones (MR1T cell clones [1]): induced a strong T cell response

COC(=O)c1ccc([C@H]2c3[nH]c4ccccc4c3C[C@H](C(=O)OC)N2C(=O)CCl)cc1 [RSL3, 1S,3R-RSL3]
MR1T-cell stimulation (IFN-γ) by treated, fixed A375-MR1 cells (MR1T cell clones [5]): significantly increased MR1T-cell stimulatory activity

N=C(N)NN [aminoguanidine, aminoguanidine hemisulfate salt]
MAIT cell activation (MAIT clone MRC25): no effect on MAIT cell activation
MR1T-cell stimulation (IFN-γ) by treated, fixed A375-MR1 cells (MR1T cell clones [5]): significant inhibition of IFN-γ production

COc1cc(C(C)=O)ccc1O [apocynin]
MR1T-cell stimulation (IFN-γ) by treated, fixed A375-MR1 cells (MR1T cell clones [5]): effective with one T-cell clone

CCCCS(=N)(=O)CCC(N)C(=O)O (stereo not drawn) [buthionine sulfoximine]
MR1T-cell stimulation (IFN-γ) by treated, fixed A375-MR1 cells (MR1T cell clones [5]): significant increase

NNc1nncc2ccccc12 [hydralazine, hydralazine hydrochloride]
MAIT cell activation (MAIT clone MRC25): no effect on MAIT cell activation
MR1T-cell stimulation (IFN-γ) by treated, fixed A375-MR1 cells (MR1T cell clones [5]): significant inhibition of IFN-γ production

O=C(O)CC(S)C(=O)O (stereo not drawn) [mercaptosuccinic acid]
MR1T-cell stimulation (IFN-γ) by treated, fixed A375-MR1 cells (MR1T cell clones [5]): significantly increased MR1T-cell stimulatory activity

— US20230099822A1, “MR1 LIGANDS AND PHARMACEUTICAL COMPOSITIONS FOR IMMUNOMODULATION” (UNIVERSITÄT BASEL, priority 2020, published 2023)
